Values quoted from earlier work, collected in EP3173421A1, “PEPTIDIC COMPOUNDS USEFUL AS ANTIBACTERIAL AGENTS” (Universitat de Barcelona, priority 2015, dated 2017).
Where a SMILES comes first, the peptide text is derived from it. Bridges are numbered along the chain shown (N, C = ends). Where no end group is shown, it is not given here. [ ]: non-standard residue; d: D form. The star is where a group is joined. ξ: configuration not given here. Thr(3ξ) = CC(O)[C@H](N)C(=O)O; Decanoyl = CCCCCCCCCC(=O)*; X1 = CC[C@H](C)CCCCC(=O)*; Nle = CCCC[C@H](N)C(=O)O; Dab = NCC[C@H](N)C(=O)O

How the values were obtained:
[1] = after 6h; kidneys versus serum; cited from earlier work
[2] = test system: Pseudomonas aeruginosa 38a; conditions: P. aeruginosa 38a; comparative examples, extracted from Rabanal et al. 2015; cited from earlier work
Escherichia coli VAL 10 = conditions: E coli VAL10; comparative examples, extracted from Rabanal et al. 2015; cited from earlier work
Escherichia coli MAC21a = conditions: E coli MAC21 a; comparative examples, extracted from Rabanal et al. 2015; cited from earlier work
[3] = test system: Staphylococcus aureus ATTC6538; conditions: S. aureus ATTC6538; comparative examples, extracted from Rabanal et al. 2015; cited from earlier work
Escherichia coli NDM-1 = conditions: E coli NDM-1; comparative examples, extracted from Rabanal et al. 2015; cited from earlier work
Escherichia coli VAL 5 = conditions: E coli VAL 5; comparative examples, extracted from Rabanal et al. 2015; cited from earlier work
[4] = test system: Pseudomonas aeruginosa ATCC 9027; conditions: P. aeruginosa ATTC9027 (non-resistant); comparative examples, extracted from Rabanal et al. 2015; cited from earlier work
[5] = test system: Escherichia coli ATCC 8739; conditions: E coli ATCC8739 (non-resistant); comparative examples, extracted from Rabanal et al. 2015; cited from earlier work
[6] = test system: Pseudomonas aeruginosa 36a; conditions: P. aeruginosa 36a; comparative examples, extracted from Rabanal et al. 2015; cited from earlier work

Row | Molecule | concentration in kidneys as multiple of the serum concentration [1] | MIC [2] | MIC (Escherichia coli VAL 10) | MIC (Escherichia coli MAC21a) | MIC [3] | MIC (Escherichia coli NDM-1) | MIC (Escherichia coli VAL 5) | MIC [4] | MIC [5] | MIC [6]
1 | CC[C@H](C)CCCCC(=O)N[C@@H](CCN)C(=O)N[C@H](C(=O)N[C@@H](CCN)C(=O)N[C@H]1CCNC(=O)[C@H](C(C)O)NC(=O)[C@H](CCN)NC(=O)[C@H](CCN)NC(=O)[C@H](CC(C)C)NC(=O)[C@@H](Cc2ccccc2)NC(=O)[C@H](CCN)NC1=O)C(C)O (stereo partly shown) [polymyxin B (8d), Polymyxin B] (X1-[Dab][Thr(3ξ)][Dab][Dab][Dab][dF]L[Dab][Dab][Thr(3ξ)]; lactam 4-C) | more than 30 |  |  |  |  |  |  |  |  | 
2 | Decanoyl-[Dab]T[Dab]C[Dab][dF][Nle][Dab][Dab][dC] (cysteine pairing not given here) [Comparative Example 8c] |  | 0.5 µg/mL | 0.5 µg/mL | 0.5 µg/mL | 4 µg/mL | 0.5 µg/mL | 0.5 µg/mL | 1 µg/mL | 2 µg/mL | 
3 | polymyxin E (colistin) [polymyxin E (colistin) (8e)] |  | 1 µg/mL | 0.5 µg/mL | 0.25 µg/mL |  | 0.5 µg/mL | 0.25 µg/mL | 1 µg/mL |  | 1 µg/mL
